{"source": "patent US20260091078A1", "about": "“OLIGOPEPTIDE THAT INHIBITS ANGIOGENESIS AND VASCULAR FUNCTION” (UNIVERSIDAD NACIONAL AUTONOMA DE MEXICO, priority 2019, published 2026)", "key": {"[1]": {"test_system": "human endothelial cells from the umbilical-vein (HUVEC)", "test": "Formation of capillary structures by HUVEC on Matrigel", "assay_type": "cell-based", "conditions": "100 nM, 6 hours", "experimental": "For investigating whether the oligopeptide THGRGFI shares this property, a primary culture of human endothelial cells from the umbilical-vein (HUVEC) was maintained in F12K media supplemented with 20% FBS, 100 μg ml^−1 of heparin, and 25 μg ml^−1 endothelial cell growth supplement (ECGS). Cells from passages 2 to 4 were rinsed with tempered PBS1x and were detached from the plate with 0.25% trypsin-EDTA for ˜3 minutes and centrifuged to remove trypsin. The cells were counted using an hemocytometer and seeded at a density of 29,000 cells cm^−2 in 300 μl of F12K medium supplemented with 20% FBS and with heparin on a 24-well plate, over a layer of ˜9.7 μg μl^−1 Matrigel™ which was previously polymerized for 1 hour at 37° C. Cells were then treated with 100 nM vasoinhibin or the oligopeptide THGRGFI, and after 6 hours, micrographs were obtained in an inverted microscope. The images were analyzed to quantify main joining areas per field using the software “Angiogenesis Analyzer” [Gilles Carpentier. ImageJ contribution: Angiogenesis Analyzer. ImageJ News, 5 Oct. 2012.] and the ImageJ software."}, "[2]": {"test_system": "immortalized bovine umbilical-vein endothelial cells (BUVEC E6E7)", "test": "Proliferation of BUVEC E6E7 endothelial cells stimulated with VEGF (EdU click assay)", "assay_type": "cell-based", "conditions": "BUVEC E6E7, 50 ng ml^-1 VEGF, 24 hours, 0.001 to 100 nM; read-out: effective dose (EC50) for inhibition of proliferation", "experimental": "(§1) On a 96-well plate treated for cell culture, BUVEC E6E7 and HUVEC cells were seeded at a density of ˜14,000 and ˜11,000 cells cm^−2, respectively. BUVEC E6E7 cells were maintained in F12K culture media with 10% (v/v) fetal bovine serum (FBS) and the HUVEC in F12K media supplemented with 20% of FBS, 100 μg ml^−1 heparin and 25 μg ml^−1 of endothelial cell growth supplement (ECGS). After 24 hours, the cells were starved with FBS-reduced media (0.1% of FBS for BUVEC E6E7 and 0.5% for HUVEC) for 16 hours to synchronize cells in phase GO of the reproductive cycle. After this time, FBS and heparin were replenished only to HUVEC. The cells were then treated with vasoinhibin or the oligopeptide THGRGFI in concentrations ranging from 0.001 to 100 nM for 24 hours in the presence of 10 μM of the thymidine analog 5-Ethynyl-2′-deoxyuridine (EdU) and 50 ng ml^−1 VEGF for the BUVEC E6E7 or the combination of 25 ng ml^−1 VEGF and 20 ng ml^−1 bFGF for HUVEC. At the end of the experiment, cells were fixed with 4% paraformaldehyde, permeabilized with 0.5% Triton X-100 in TBS1x, and stained to detect the newly synthetized DNA by the incorporation of EdU using the “click” assay (which involves a copper catalyzed reaction to covalently bind fluorescent azide to the EDU incorporated to DNA). Total DNA was counterstained with Hoechst 33342 and the “click”-stained nuclei were quantified and plotted relative to the total number of Hoechst 33342-stained nuclei.\nFor the assay, BUVEC E6E7 cells were seeded at a density of ˜14′000 cells cm^−2 in a 96 well plate with F12K with 10% (v/v) FBS. After 24 hours, cells were starved with 0.1% of FBS for GO synchronization for ˜16 hours. Next, the cells were treated with the different oligopeptides in presence of 10 μM of the thymidine analog EdU and 50 ng ml^−1 of VEGF. Finally, the cells were fixed, permeabilized, and stained for the newly synthetized DNA by the EdU incorporation through the ‘click’ assay. The total DNA was stained with Hoechst 33342 and the percentage of ‘click’-stained nuclei over the total nuclei was a measure of proliferation."}, "BUVEC E6E7": {"test_system": "BUVEC E6E7", "test": "Vasopermeability in vitro: transendothelial electrical resistance (TEER)", "assay_type": "cell-based, bovine", "conditions": "BUVEC E6E7 monolayer, 100 nM, 50 ng ml^-1 VEGF, up to 120 minutes", "experimental": "Another conventional protocol to evaluate vasopermeability is the measurement of the transendothelial electrical resistance (TEER), which uses a device that applies an electric current through electrodes at both sides of the endothelial cell monolayer. […] The effect of the oligopeptide THGRGFI on endothelial cell permeability was evaluated by measuring TEER. BUVEC E6E7 were seeded in the TEER device at a density of 10,000 cells cm^−2. After three days, the monolayers were starved in low serum media (0.1% FBS) for 48 hours and after this time, 100 nM of vasoinhibin or of the oligopeptide were added to the upper compartment (luminal surface of the monolayer) for 1 hour. At time 0, TEER was recorded and 50 ng ml^−1 of VEGF were added to the luminal side. The TEER was measured at 10, 20, 30, 60, 90 and 120 minutes. Determinations were performed with the Epithelial Volt/Ohm (TEER) EVOM2 equipment (World Precision Instruments, FL, USA) with a 4 mm ‘chopstick’ electrode. Values were normalized relative to a device with no cells and a monolayer without treatment."}, "[3]": {"test_system": "human umbilical-vein endothelial cells (HUVEC)", "test": "Proliferation of HUVEC stimulated with VEGF and bFGF (EdU click assay)", "assay_type": "cell-based", "conditions": "HUVEC, 25 ng ml^-1 VEGF and 20 ng ml^-1 bFGF, 24 hours, 0.001 to 100 nM; read-out: effective dose (EC50) for inhibition of proliferation", "experimental": "as §1\nHUVEC were seeded on a 96 well plate at a density of ˜11,000 cells cm^−2 and maintained in F12K supplemented with 20% of FBS, 100 μg ml^−1 heparin and 25 μg ml^−1 endothelial cell growth supplement (ECGS). After 24 hours, the cells were synchronized in GO with starving conditions (FBS 0.5%) for 16 hours, and after that FBS and the heparin were replenished. Cells were then treated with THGRGFI, the different oligopeptides and 123 amino acids vasoinhibin, each in a concentration of 100 nM, for 24 hours in presence or absence of 10 μM of thymidine analog 5-Ethynyl-2′-deoxyuridine (EdU) and a combination of 25 ng ml^−1 VEGF and 20 ng ml^−1 bFGF. Finally, the cells were fixed with 4% paraformaldehyde, permeabilized with 0.5% of Triton X-100 in TBS1x and stained for the newly synthetized DNA with the ‘click’ method that detects the EdU incorporation. Total DNA was stained with Hoechst 33342 and the percentage of ‘click’-stained nuclei relative to total nuclei (Hoechst 33342-stained) indicated cell proliferation.\nApproximately 11,000 HUVEC cells cm^−2 were seeded on a 96 well plate in F12K media with 20% FBS, 100 μg ml^−1 heparin and 25 μg ml^−1 ECGS. After 24 hours, cells were starved with 0.5% of FBS for ˜16 hours, and after that time the FBS and heparin were added again and cells treated with different doses of the alanine substituted oligopeptides for 24 hours, in the presence of EdU and a combination of 25 ng ml^−1 VEGF and 20 ng ml^−1 bFGF. Finally, the cells were fixed, permeabilized and stained to quantify the synthesis of DNA as a sign of proliferation."}}}
{"substance": "Ac-THGRGFI-NH2 [THGRGFI, Thr His Gly Arg Gly Phe Ile]", "values": [{"measurement": "effect on capillary structures (main joining areas per field)", "setting": "[1]", "value": "disrupted the capillary structures"}, {"measurement": "EC50", "setting": "[2]", "value": "~1", "unit": "nM"}, {"measurement": "effect on VEGF-induced reduction of transendothelial resistance (TEER)", "setting": "BUVEC E6E7", "value": "block the VEGF effect"}, {"measurement": "EC50", "setting": "[3]", "value": "~1", "unit": "nM"}]}
